Consider 31 compounds from BindingDB's records for doi:10.7270/Q2MP51PC (Pcmd, 2008).

SMILES strings stand for the structures.

This assay addresses T1, Complement C1s subcomponent (Homo sapiens, UniProt P09871).
T1 sequence (P09871 whole entry): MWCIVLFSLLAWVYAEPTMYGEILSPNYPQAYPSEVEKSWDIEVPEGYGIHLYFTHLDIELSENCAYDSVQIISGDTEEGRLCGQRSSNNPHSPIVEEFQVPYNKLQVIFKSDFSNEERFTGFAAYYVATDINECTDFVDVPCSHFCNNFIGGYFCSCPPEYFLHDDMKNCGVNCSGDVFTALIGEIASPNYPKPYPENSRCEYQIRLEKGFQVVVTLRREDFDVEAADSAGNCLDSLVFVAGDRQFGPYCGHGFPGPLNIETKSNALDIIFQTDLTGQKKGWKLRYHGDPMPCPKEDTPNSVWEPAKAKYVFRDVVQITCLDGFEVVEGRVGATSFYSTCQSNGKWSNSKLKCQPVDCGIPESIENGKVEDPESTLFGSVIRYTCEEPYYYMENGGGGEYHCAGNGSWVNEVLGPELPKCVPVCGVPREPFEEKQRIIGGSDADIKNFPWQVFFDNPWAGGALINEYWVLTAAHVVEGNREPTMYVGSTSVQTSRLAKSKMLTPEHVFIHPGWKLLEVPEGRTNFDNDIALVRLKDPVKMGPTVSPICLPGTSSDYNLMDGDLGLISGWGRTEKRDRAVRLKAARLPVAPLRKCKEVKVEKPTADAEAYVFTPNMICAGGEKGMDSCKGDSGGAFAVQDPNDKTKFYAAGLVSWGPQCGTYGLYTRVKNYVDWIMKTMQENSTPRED
Briefly: C1s inhibitor IC50 values, dose response, biochemical (AID 787).
In the case of `COc1ccccc1S(=O)(=O)Cc1ccc(C(=O)NCCN(C)C)o1` [MLS000120198], the half-maximal inhibitory concentration (IC50) is > 50 µM. The result for `COc1ccc2cc(CCNC(=O)C(C)C)c(=O)[nH]c2c1` [N-[2-(7-methoxy-2-oxo-1H-quinolin-3-yl)ethyl]-2-methylpropanamide] reads > 50 µM; that for `O=C(N1CCOCC1)C12CCC3CC(CC(C3)C1)C2` [MLS000071057], > 50 µM. The value for `COC(=O)COc1cccc(NC(=O)c2ccccc2)c1` [2-(3-benzamidophenoxy)acetic acid methyl ester] was > 50 µM; that for `CCn1c(CCn2ccnc2C)n[nH]c1=S` [4-ethyl-5-[2-(2-methyl-1H-imidazol-1-yl)ethyl]-2,4-dihydro-3H-1,2,4-triazole-3-thione] was > 50 µM. Regarding `CC(=O)c1cc2c(cc1NC(=O)C1CC=CCC1C(=O)O)OCO2` (stereo unspecified) [6-[(6-acetyl-1,3-benzodioxol-5-yl)carbamoyl]cyclohex-3-ene-1-carboxylic acid], the IC50 was > 50 µM. The value for `Cc1nc2scc(-c3cccs3)c2c(=O)o1` [2-methyl-5-(2-thienyl)thieno[2,3-d][1,3]oxazin-4-one] was > 50 µM. For `O=C(NC1CCCC1)c1cccc(S(=O)(=O)N2CCCCC2)c1` [MLS000065413], the IC50 was > 50 µM. With `Cc1sc2nc(-c3ccco3)oc(=O)c2c1C` [2-(2-furanyl)-5,6-dimethyl-4-thieno[2,3-d][1,3]oxazinone], the IC50 is > 50 µM. `COc1ccc(-c2nc(SC)n(C(=O)c3ccco3)n2)cc1` [1-(2-furoyl)-3-(4-methoxyphenyl)-5-(methylthio)-1H-1,2,4-triazole] had an IC50 of 15.6 µM. `O=C(Cc1ccc(-c2ccccc2)cc1)NCCN1CCOCC1` [2-Biphenyl-4-yl-N-(2-morpholin-4-yl-ethyl)-acetamide]: the IC50 was > 50 µM. Consider `CC(=O)N1CCN(C(=O)c2cccc(S(=O)(=O)Nc3ccc(C)cc3)c2)CC1` [3-(4-acetylpiperazine-1-carbonyl)-N-(4-methylphenyl)benzenesulfonamide], for which the half-inhibitory concentration (IC50) is > 50 µM. Take `Cc1cc(C)c2c(CC(=O)NCc3ccco3)coc2c1` [2-(4,6-dimethyl-1-benzofuran-3-yl)-N-(2-furylmethyl)acetamide]: the IC50 is > 50 µM. As to `COc1ccc(NC(=O)c2cccs2)cc1OC` [MLS000058874], the IC50 is > 50 µM.

Regarding `COc1ccc(NC(=O)CSC2=NC3=C(C(=O)CCC3)C(c3ccco3)C2C#N)c(OC)c1` (stereo unspecified) [SMR000042323], the concentration for half-maximal inhibition (IC50) is > 50 µM. The value for `COc1ccc(NC(=O)C2CCC(=O)N2S(=O)(=O)c2ccc(C)cc2)c(OC)c1` (stereo unspecified) [MLS000050140] was > 50 µM; that for `CCc1cc(=O)oc2cc(C)cc(OC(=O)c3ccco3)c12` [MLS000099547] was 10.1 µM. The result for `CCN1CCN(c2ccc(-n3c(C)nc4c(cnn4-c4ccccc4Cl)c3=O)cc2)CC1` [1-(2-chlorophenyl)-5-[4-(4-ethyl-1-piperazinyl)phenyl]-6-methyl-4-pyrazolo[3,4-d]pyrimidinone] reads > 50 µM; that for `O=C(c1csc2c1CCCC2)n1cccn1` [1-(4,5,6,7-tetrahydro-1-benzothien-3-ylcarbonyl)-1H-pyrazole], 3.83 µM; that for `COc1ccc(S(=O)(=O)n2nc(OC(=O)c3ccco3)cc2N)cc1` [MLS000033887], 11.3 µM.

`COc1ccccc1CNC(=O)C1COc2ccccc2O1` (stereo unspecified) [MLS000110123]: the IC50 was > 50 µM.

For the compound `O=C(Oc1ccc(-n2cnnn2)cc1)c1ccco1` [2-furancarboxylic acid [4-(1-tetrazolyl)phenyl] ester], the IC50 was > 50 µM. Take `CC(=O)NC(=O)NC1CSCC1OC(C)=O` (stereo unspecified) [4-{[(acetylamino)carbonyl]amino}tetrahydro-3-thienyl acetate]: the IC50 was > 50 µM. `Cc1cc(NC(=O)c2cc3nc(C4CC4)cc(C(F)(F)F)n3n2)no1` [5-cyclopropyl-N-(5-methyl-1,2-oxazol-3-yl)-7-(trifluoromethyl)pyrazolo[1,5-a]pyrimidine-2-carboxamide]: the IC50 was > 50 µM. Consider `O=C1CCCC2=NC(Nc3nc4ccccc4o3)=NC3(CCCCC3)C12` (stereo unspecified) [2-(1,3-benzoxazol-2-ylamino)-5-spiro[1,6,7,8-tetrahydroquinazoline-4,1'-cyclohexane]one], for which the IC50 was > 50 µM.

In turn, `O=C(NCCc1ccccc1)c1noc2c1CCc1ccccc1-2` [MLS000087424] registered an IC50 of 14 µM. Regarding `CC1CCN(S(=O)(=O)c2cccc(C(=O)Nc3nccs3)c2)CC1` [3-(4-methylpiperidin-1-yl)sulfonyl-N-(1,3-thiazol-2-yl)benzamide], the IC50 was > 50 µM. As for `O=C(Nc1nc(-c2cccs2)cs1)c1cccc(S(=O)(=O)N2CCCCC2)c1` [3-(1-piperidinylsulfonyl)-N-(4-thiophen-2-yl-2-thiazolyl)benzamide], the IC50 is > 50 µM.

Take `N#Cc1cnn(CC2CCCCC2)c1N` [5-amino-1-(cyclohexylmethyl)-4-pyrazolecarbonitrile]: the IC50 was > 50 µM. As for `c1ccc(Cc2nn3c(COc4ccccc4)nnc3s2)cc1` [3-(phenoxymethyl)-6-(phenylmethyl)-[1,2,4]triazolo[3,4-b][1,3,4]thiadiazole], the IC50 is > 50 µM. `O=C(NC1=NCCS1)c1cccc(S(=O)(=O)N2CCCCC2)c1` [3-piperidinosulfonyl-N-(2-thiazolin-2-yl)benzamide]: the IC50 is > 50 µM.
